According to patent US11209437B2, “Fluorescent probe and preparation method and use thereof” (Fluorescence Diagnosis (shanghai) Biotech Company Ltd., priority 2016, dated 2021):

How the values were obtained:
[1] = Viscosity responsiveness: fluorescence emission spectra of probes in glycerol and methanol; assay type: physicochemical; details: for Emission wavelength: excited at maximum excitation wavelength of each probe; for Fluorescence ratio in glycerol to methanol: probe 1×10^−5 M
Outline: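 Each probe, from a 1×10^−2 M DMSO stock, was diluted to a final 1×10^−5 M in glycerol and in methanol. Fluorescence emission spectra were then recorded under identical conditions at each probe's maximum excitation wavelength.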

SNAP protein tags = target: T1, SNAP protein tags (Homo sapiens, UniProt P16455, A127T/A154D/C150Q/C62A/E30R/G131K/G132T/G153L/K125A/K32I/L33F/M134L/N157G/Q115S/Q116H/R128A/R135S/S151G/S152D/S159E); experiment: Fluorescence activation of probe after incubation with corresponding protein tag (SNAP); assay type: biochemical; details: probe 5 μM, protein tag 10 μM, 37° C., 1 hr
T1 sequence (P16455 1-182 E30R/K32I/L33F/C62A/Q115S/Q116H/K125A/A127T/R128A/G131K/G132T/M134L/R135S/C150Q/S151G/S152D/G153L/A154D/N157G/S159E): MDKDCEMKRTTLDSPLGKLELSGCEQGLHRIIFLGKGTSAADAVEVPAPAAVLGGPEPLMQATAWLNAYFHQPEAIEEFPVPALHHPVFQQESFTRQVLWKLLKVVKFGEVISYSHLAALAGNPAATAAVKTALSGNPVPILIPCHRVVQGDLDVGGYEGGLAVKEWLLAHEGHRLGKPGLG
Outline: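 Probe (5 μM final) mixed with CLIP or SNAP protein tag (10 μM final) and incubated 1 hr at 37° C. Fluorescence intensity change measured by fluorescence spectrophotometer, with quantum yield of tag-bound probe determined.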

[2] = Fluorescence of free probe prior to binding to a protein tag; assay type: physicochemical

| SMILES | Emission wavelength [1] | Fluorescence ratio in glycerol to methanol [1] | Fluorescence activation multiple (SNAP protein tags) | Quantum yield of probe bound to protein tag (SNAP protein tags) | Quantum yield of free probe [2] |
| --- | --- | --- | --- | --- | --- |
| CN(CCOC(=O)NCc1ccc(COc2nc(N)nc3[nH]cnc23)cc1)c1cc2c(s1)-c1sc(/C=C(/C#N)C(=O)OC(C)(C)C)cc1[Si]2(C)C [probe 74] | 680 nm | 297 | 311 | 0.78 | 0.0025 |
| CN(CCOC(=O)NCc1ccc(COc2nc(N)nc3[nH]cnc23)cc1)c1cc2c(s1)-c1sc(/C=C(/C#N)c3nc4ccccc4o3)cc1[Si]2(C)C [probe 75] | 700 nm | 105 | 211 | 0.44 | 0.0021 |
| COCCNC(=O)/C(C#N)=C/c1ccc(-c2ccc(N(C)CCOC(=O)NCc3ccc(COc4nc(N)nc5[nH]cnc45)cc3)s2)s1 [probe 78] | 672 nm | 189 | 369 | 0.28 | <0.001 |
| CN(CCOC(=O)NCc1ccc(COc2nc(N)nc3[nH]cnc23)cc1)c1ccc(-c2ccc(/C=C(\C#N)c3nc4ccccc4s3)s2)s1 [probe 79] | 681 nm | 298 | 419 | 0.31 | <0.001 |
| CC(C)(C)OC(=O)/C(C#N)=C/c1ccc2c(c1)SCCN2CCOC(=O)NCc1ccc(COc2nc(N)nc3[nH]cnc23)cc1 [probe 83] | 515 nm | 103 | 209 | 0.18 | <0.001 |
| N#C/C(=C\c1ccc2c(c1)SCCN2CCOC(=O)NCc1ccc(COc2nc(N)nc3[nH]cnc23)cc1)c1nc2ccccc2o1 [probe 85] | 535 nm | 187 | 391 | 0.15 | <0.001 |
| N#C/C(=C\c1ccc2c(c1)SCCN2CCOC(=O)NCc1ccc(COc2nc(N)nc3[nH]cnc23)cc1)c1nc2ccccc2s1 [probe 86] | 550 nm | 214 | 413 | 0.17 | <0.001 |
| CC1=CC(C)(C)N(CCOC(=O)NCc2ccc(COc3nc(N)nc4[nH]cnc34)cc2)c2ccc(/C=C(\C#N)C(=O)OC(C)(C)C)cc21 [probe 87] | 575 nm | 209 | 515 | 0.45 | <0.001 |
| CC1=CC(C)(C)N(CCOC(=O)NCc2ccc(COc3nc(N)nc4[nH]cnc34)cc2)c2ccc(/C=C(\C#N)c3nc4ccccc4s3)cc21 [probe 89] | 612 nm | 129 | 421 | 0.32 | <0.001 |
| CN(CCOC(=O)NCc1ccc(COc2nc(N)nc3[nH]cnc23)cc1)c1cc2c(s1)-c1sc(/C=C(/C#N)C(=O)O)cc1C2(C)C [probe 98] | 650 nm | 182 | 893 | 0.78 | <0.001 |
| CN(CCOC(=O)NCc1ccc(COc2nc(N)nc3[nH]cnc23)cc1)c1ccc(/C=C(\C#N)C(=O)O)cc1 [probe 101] | 481 nm | 362 | 463 | 0.37 | <0.001 |
| N#C/C(=C\c1ccc2c(c1)SCCN2CCOC(=O)NCc1ccc(COc2nc(N)nc3[nH]cnc23)cc1)C(=O)O [probe 103] | 515 nm | 321 | 651 | 0.27 | <0.001 |
| CC1=CC(C)(C)N(CCOC(=O)NCc2ccc(COc3nc(N)nc4[nH]cnc34)cc2)c2ccc(/C=C(\C#N)C(=O)O)cc21 [probe 105] | 510 nm | 328 | 549 | 0.41 | <0.001 |
| CN(CCOC(=O)NCc1ccc(COc2nc(N)nc3[nH]cnc23)cc1)c1cc2sc(/C=C(\C#N)C(=O)O)cc2s1 [probe 107] | 555 nm | 526 | 564 | 0.47 | <0.001 |
| CN(CCOC(=O)NCc1ccc(COc2nc(N)nc3[nH]cnc23)cc1)c1ccc(C#C/C=C(\C#N)C(=O)O)cc1 [probe 109] | 566 nm | 341 | 546 | 0.33 | <0.001 |
| CN(CCOC(=O)NCc1ccc(COc2nc(N)nc3[nH]cnc23)cc1)c1ccc2cc(/C=C(\C#N)C(=O)O)sc2c1 [probe 111] | 570 nm | 621 | 681 | 0.49 | <0.001 |
| CN(CCOC(=O)NCc1ccc(COc2nc(N)nc3[nH]cnc23)cc1)c1ccc2nc(/C=C(\C#N)C(=O)O)sc2c1 [probe 114] | 625 nm | 230 | 328 | 0.27 | <0.001 |
| CN(CCOC(=O)NCc1ccc(COc2nc(N)nc3[nH]cnc23)cc1)c1ccc(-c2ccc(/C=C(\C#N)C(=O)O)s2)cc1 [probe 117] | 620 nm | 321 | 562 | 0.39 | <0.001 |
| CN(CCOC(=O)NCc1ccc(COc2nc(N)nc3[nH]cnc23)cc1)c1ccc(-c2ccc(/C=C(\C#N)C(=O)O)s2)s1 [probe 120] | 656 nm | 421 | 469 | 0.42 | <0.001 |
